The source of these data is patent US7741047B2, “Method for treating autoimmune diseases and screening method for preventive or therapeutic agent for the same” (Kowa Co., Ltd., priority 2003, dated 2010).

For series [1], the system named is RHO cells (RBAp48-stable cell line from HSG cells). In words: Apoptosis of RBAp48-stable cell line after addition of IPTG. The format is cell-based, human. The settings on record: from two hours to twelve hours after addition of IPTG. The text has this:
(§1) A stable cell line in which RBAp48 expression is stably regulated by addition of IPTG to the culture system is established by means of LacSwitch II Inducible Mammalian Expression System (STRATEGENE) through use of HSG cells (RHO cell). […] Separately, the RHO cells were investigated in terms of cell cycle related molecules (i.e., RBs, phosphorylated RB, CyclinD3, and p19ARF) in the cell lysates six hours after addition of IPTG, through western blotting by use of the corresponding antibodies (BD Transduction Laboratory). […] In addition, a nuclear extract of IPTG-added RHO cells was subjected to gel shift assay.

Series [2] deals with MSG:B6, ERαKO, HSG, MCF-7, Jurkat, HT-29 and Colo201 cells. In words: Apoptosis induction of cultured cells, positive control groups. The format is cell-based. The following applies: staurosporin 10^−6 M, all cell groups, not differing from one group to another. As for the experimental part:
(§2) Cells of each of the following cell lines were cultured through a routine method; mouse salivary gland cell lines (MSG:B6 and ERαKO); human salivary gland cell line (HSG); human breast cancer cultured-cell line (MCF-7); human acute T cell leukemia cell line (Jurkat); and human colon cancer cultured-cell lines (HT-29 and Colo201). The cultured cells were reacted with tamoxifen (Tam, final concentration: 10^−7 M), an antagonist of estrogen. […] Separately, the above cultured cells were reacted with staurosporin (an apoptosis inducer, final concentration: 10^−6 M), and the resultant cells were used as a positive control group. Forty-eight hours after the addition of Tam, apoptosis of the cells was determined by means of a flow cytometer, by use of Annexin-V-FITC.

Series [3] relates to ERαKO-mouse-derived MSG cells. Kind of series: Apoptosis induction of cultured cells, Annexin-V-FITC flow cytometry. In kind it is cell-based. The following applies: Tam 10^−7 M, 48 hours. On the procedure: as §2
(A flow cytometer gives signals particle by particle.)

Series [4] deals with human salivary gland cell line (HSG). The description is as above. In kind it is cell-based. The following applies: Tam 10^−7 M, 48 hours after addition, compared with groups without Tam. As for the experimental part: as §2
Series [5] deals with mouse salivary gland cell line MSG (B6). The series is described as above. The format is cell-based. The following applies: Tam 10^−7 M, 48 hours after addition, compared with groups without Tam. On the procedure: as §2
For a further series, the system named is RBAp48 mRNA in HSG cells. Kind of series: Northern blotting of genes with enhanced expression by anti-estrogen effect. In kind it is cell-based, human.
Series [6] has as its system human breast cancer cultured-cell line (MCF-7). The settings on record: MCF-7 cells, previously known; cited from earlier work.
For series [7], the system named is RHO cells (RBAp48-stable cell line from HSG cells). In words: Effect of siRNA on RBAp48-induced apoptosis, Annexin-V-FITC flow cytometry. In kind it is cell-based, human. The following applies: 50 nM siRNA by lipofection, IPTG 24 h after transfer, culture 8 h.
Text: as §1
siRNA of RBAp48 was prepared (sense; CGAGGAAUACAAAAUAUGGTT (SEQ ID NO: 1), antisense; CCAUAUUCUGUAUUCCUCGTT (SEQ ID NO: 2)). […] The percent apoptotic cells of the cultured cells was determined by means of a flow cytometer, by use of Annexin-V-FITC.

Consider `CC(C)S[C@@H]1O[C@H](CO)[C@H](O)[C@H](O)[C@H]1O` [IPTG, isopropyl-β-D-thiogalactoside], for which the percent apoptotic cells result in series [1] is given as “increase over time”.

In the case of `CN[C@@H]1C[C@H]2O[C@@](C)([C@@H]1OC)n1c3ccccc3c3c4c(c5c6ccccc6n2c5c31)C(=O)NC4` [staurosporin], the percent apoptotic cells entry in series [2] is listed as “high”.

On to `CC/C(=C(\c1ccccc1)c1ccc(OCCN(C)C)cc1)c1ccccc1` [tamoxifen], for which the apoptosis induction result in series [3] is “not to be induced”; in series [6] it was “known to be induced”. Moreover, the percent apoptotic cells entry in series [4] and in series [5] was “significantly high” throughout. Besides, the “mRNA (RBAp48 gene) expression” value in the series with RBAp48 mRNA in HSG cells (tamoxifen 10^−7 M, northern blotting) is recorded as “enhanced expression”. In addition, the “RBAp48 mRNA expression” value in the series on RBAp48 mRNA in HSG cells (two hours after Tam stimulation) is “strong RBAp48 mRNA expression”.

In the case of “RBAp48 siRNA: siRNA of RBAp48: sense CGAGGAAUACAAAAUAUGGTT (SEQ ID NO: 1), antisense CCAUAUUCUGUAUUCCUCGTT (SEQ ID NO: 2)”, the “apoptosis induced by addition of IPTG” value in series [7] is recorded as “significantly suppressed”.
